Laboratory results: PubChem BioAssay AID1963958 (Molecular Pharmacology Branch, DTP, NCI, 2024)
Blank lines part the entries; values can stand above or below the molecule they belong to.

System: MDA-MB-231 multicell spheroids, viability
Test: Anticancer human tumor MDA-MB-231 cell line growth inhibition [PI3K];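 also: spheroids exposed to agents for seven days before reading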;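 as to viability, T/C: percent of vehicle control luminescence with DMSO treated spheroids as 100%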
Details: for IC50: curve of first compound; for viability, T/C: stronger effect = lower value
Method in brief: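 Tumor cells grown as multi-cell spheroids with HUVEC endothelial cells and MSC fibroblast-like stroma were treated with targeted agents combined with inavolisib, alpelisib, duvelisib or copanlisib. Doses fell in half-log steps from near clinical Cmax, else from 10 microM. Viability was measured.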

[1] = second compound 0.00316 µM, first compound 0.0316 µM
[2] = second compound 0.00316 µM, first compound 0.1 µM
[3] = second compound 0.00316 µM, first compound 0.316 µM
[4] = second compound 0.00316 µM, first compound 1 µM
[5] = second compound 0.00316 µM, first compound 3.16 µM
[6] = second compound 0.00316 µM, first compound 10 µM
[7] = second compound 0.01 µM, first compound 0.0316 µM
[8] = second compound 0.01 µM, first compound 0.1 µM
[9] = second compound 0.01 µM, first compound 0.316 µM
[10] = second compound 0.01 µM, first compound 1 µM
[11] = second compound 0.01 µM, first compound 3.16 µM
[12] = second compound 0.01 µM, first compound 10 µM
[13] = second compound 0.0316 µM, first compound 0.0316 µM
[14] = second compound 0.0316 µM, first compound 0.1 µM
[15] = second compound 0.0316 µM, first compound 0.316 µM
[16] = second compound 0.0316 µM, first compound 1 µM
[17] = second compound 0.0316 µM, first compound 3.16 µM
[18] = second compound 0.0316 µM, first compound 10 µM
[19] = second compound 0.1 µM, first compound 0.0316 µM
[20] = second compound 0.1 µM, first compound 0.1 µM
[21] = second compound 0.1 µM, first compound 0.316 µM
[22] = second compound 0.1 µM, first compound 1 µM
[23] = second compound 0.1 µM, first compound 3.16 µM
[24] = second compound 0.1 µM, first compound 10 µM
[25] = second compound 0.316 µM, first compound 0.0316 µM
[26] = second compound 0.316 µM, first compound 0.1 µM
[27] = second compound 0.316 µM, first compound 0.316 µM
[28] = second compound 0.316 µM, first compound 1 µM
[29] = second compound 0.316 µM, first compound 3.16 µM
[30] = second compound 0.316 µM, first compound 10 µM
[31] = second compound 1 µM, first compound 0.0316 µM
[32] = second compound 1 µM, first compound 0.1 µM
[33] = second compound 1 µM, first compound 0.316 µM
[34] = second compound 1 µM, first compound 1 µM
[35] = second compound 1 µM, first compound 3.16 µM
[36] = second compound 1 µM, first compound 10 µM

- IC50 (second compound 0.00316 µM): > 10000 nM
- IC50 (second compound 0.01 µM): > 10000 nM
- IC50 (second compound 0.0316 µM): > 10000 nM
- IC50 (second compound 0.1 µM): < 31.6 nM
- IC50 (second compound 0.316 µM): < 31.6 nM
- IC50 (second compound 1 µM): < 31.6 nM
SMILES: CC1(C)CCC(CN2CCN(c3ccc(C(=O)NS(=O)(=O)c4ccc(NCC5CCOCC5)c([N+](=O)[O-])c4)c(Oc4cnc5[nH]ccc5c4)c3)CC2)=C(c2ccc(Cl)cc2)C1 + COc1c(OCCCN2CCOCC2)ccc2c3n(c(=NC(=O)c4cnc(N)nc4)nc12)CCN3
- viability, T/C [1]: 100%
- viability, T/C [2]: 96.4%
- viability, T/C [3]: 96.8%
- viability, T/C [4]: 104%
- viability, T/C [5]: 102%
- viability, T/C [6]: 104%
- viability, T/C [7]: 82.1%
- viability, T/C [8]: 80.1%
- viability, T/C [9]: 85%
- viability, T/C [10]: 91.1%
- viability, T/C [11]: 85.2%
- viability, T/C [12]: 83.9%
- viability, T/C [13]: 65.9%
- viability, T/C [14]: 66.4%
- viability, T/C [15]: 65.2%
- viability, T/C [16]: 65.7%
- viability, T/C [17]: 67.4%
- viability, T/C [18]: 66.5%
- viability, T/C [19]: 46.2%
- viability, T/C [20]: 45.6%
- viability, T/C [21]: 48.1%
- viability, T/C [22]: 47.7%
- viability, T/C [23]: 48.9%
- viability, T/C [24]: 44.9%
- viability, T/C [25]: 35.6%
- viability, T/C [26]: 34.8%
- viability, T/C [27]: 36.1%
- viability, T/C [28]: 35.3%
- viability, T/C [29]: 35.8%
- viability, T/C [30]: 33.6%
- viability, T/C [31]: 25.7%
- viability, T/C [32]: 26.2%
- viability, T/C [33]: 24.5%
- viability, T/C [34]: 23.9%
- viability, T/C [35]: 25.1%
- viability, T/C [36]: 22.2%

- IC50 (second compound 0.00316 µM): 5140 nM
- IC50 (second compound 0.01 µM): 3480 nM
- IC50 (second compound 0.0316 µM): 1650 nM
- IC50 (second compound 0.1 µM): < 31.6 nM
- IC50 (second compound 0.316 µM): < 31.6 nM
- IC50 (second compound 1 µM): < 31.6 nM
SMILES: CCCS(=O)(=O)Nc1ccc(F)c(C(=O)c2c[nH]c3ncc(-c4ccc(Cl)cc4)cc23)c1F + COc1c(OCCCN2CCOCC2)ccc2c3n(c(=NC(=O)c4cnc(N)nc4)nc12)CCN3
- viability, T/C [1]: 104%
- viability, T/C [2]: 103%
- viability, T/C [3]: 96.6%
- viability, T/C [4]: 76.5%
- viability, T/C [5]: 63.1%
- viability, T/C [6]: 34.8%
- viability, T/C [7]: 74.4%
- viability, T/C [8]: 91.3%
- viability, T/C [9]: 80.4%
- viability, T/C [10]: 67.6%
- viability, T/C [11]: 53%
- viability, T/C [12]: 32.3%
- viability, T/C [13]: 65.1%
- viability, T/C [14]: 64.7%
- viability, T/C [15]: 62.7%
- viability, T/C [16]: 57%
- viability, T/C [17]: 41%
- viability, T/C [18]: 25.3%
- viability, T/C [19]: 48%
- viability, T/C [20]: 49.8%
- viability, T/C [21]: 50%
- viability, T/C [22]: 44.5%
- viability, T/C [23]: 34%
- viability, T/C [24]: 20.9%
- viability, T/C [25]: 34.8%
- viability, T/C [26]: 35.1%
- viability, T/C [27]: 34.4%
- viability, T/C [28]: 30.7%
- viability, T/C [29]: 24.4%
- viability, T/C [30]: 15.7%
- viability, T/C [31]: 28.2%
- viability, T/C [32]: 28.3%
- viability, T/C [33]: 26.7%
- viability, T/C [34]: 24.9%
- viability, T/C [35]: 20.3%
- viability, T/C [36]: 13.2%

- IC50 (second compound 0.00316 µM): > 10000 nM
- IC50 (second compound 0.01 µM): > 10000 nM
- IC50 (second compound 0.0316 µM): 1730 nM
- IC50 (second compound 0.1 µM): 136 nM
- IC50 (second compound 0.316 µM): < 31.6 nM
- IC50 (second compound 1 µM): < 31.6 nM
SMILES: C[C@@H](NC(=O)c1ncnc(N)c1Cl)c1ncc(C(=O)Nc2cc(C(F)(F)F)c(Cl)cn2)s1 + COc1c(OCCCN2CCOCC2)ccc2c3n(c(=NC(=O)c4cnc(N)nc4)nc12)CCN3
- viability, T/C [1]: 123%
- viability, T/C [2]: 110%
- viability, T/C [3]: 100%
- viability, T/C [4]: 84.2%
- viability, T/C [5]: 71%
- viability, T/C [6]: 59.1%
- viability, T/C [7]: 108%
- viability, T/C [8]: 90.4%
- viability, T/C [9]: 81.6%
- viability, T/C [10]: 65.7%
- viability, T/C [11]: 59.8%
- viability, T/C [12]: 52.5%
- viability, T/C [13]: 75.9%
- viability, T/C [14]: 72.9%
- viability, T/C [15]: 61.5%
- viability, T/C [16]: 54.5%
- viability, T/C [17]: 45.9%
- viability, T/C [18]: 39.9%
- viability, T/C [19]: 61%
- viability, T/C [20]: 49.6%
- viability, T/C [21]: 45.4%
- viability, T/C [22]: 39.4%
- viability, T/C [23]: 34.2%
- viability, T/C [24]: 28.3%
- viability, T/C [25]: 38.8%
- viability, T/C [26]: 35.3%
- viability, T/C [27]: 29.4%
- viability, T/C [28]: 23.4%
- viability, T/C [29]: 20.3%
- viability, T/C [30]: 15.9%
- viability, T/C [31]: 33.4%
- viability, T/C [32]: 25.4%
- viability, T/C [33]: 23.2%
- viability, T/C [34]: 18.2%
- viability, T/C [35]: 15.3%
- viability, T/C [36]: 10.6%
